Assay results: ChEMBL document CHEMBL1201862, “PubChem BioAssay data set” (2004)
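Growth conditions: 96-well plates. Treatment: test compound, 48 hours, 5 concentrations. Analysis: linear interpolation between bracketing concentrations; unreached endpoints set to highest concentration. At the GI50, growth is halved.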 The source made the active and inactive calls. Cut-off read from the data, not from the text of the source: active = GI50 up to about 1.1 µM and inactive = higher.

Tests used:
Assay in all cases: NCI-60 cell line screen, 48 h
CCRF-CEM = tested on: CCRF-CEM
M14 = tested on: M14
Hs-578T = tested on: Hs-578T
K562 = tested on: K562
SK-OV-3 = tested on: SK-OV-3
OVCAR-5 = tested on: OVCAR-5
IGROV-1 = tested on: IGROV-1
MDA-MB-435 = tested on: MDA-MB-435
BT-549 = tested on: BT-549
T47D = tested on: T47D
SK-MEL-28 = tested on: SK-MEL-28
HL-60 = tested on: HL-60
U-251 = tested on: U-251
OVCAR-8 = tested on: OVCAR-8
SNB-75 = tested on: SNB-75
ACHN = tested on: ACHN
HCT-116 = tested on: HCT-116
MOLT-4 = tested on: MOLT-4
SF-268 = tested on: SF-268
SK-MEL-5 = tested on: SK-MEL-5
786-0 = tested on: 786-0
SNB-19 = tested on: SNB-19
UACC-257 = tested on: UACC-257
NCI-H226 = tested on: NCI-H226
A498 = tested on: A498
SF-539 = tested on: SF-539
RXF 393 = tested on: RXF 393
TK-10 = tested on: TK-10
SN12C = tested on: SN12C
DU-145 = tested on: DU-145
KM12 = tested on: KM12
COLO 205 = tested on: COLO 205
OVCAR-4 = tested on: OVCAR-4
OVCAR-3 = tested on: OVCAR-3
Malme-3M = tested on: Malme-3M
HOP-92 = tested on: HOP-92
A549 = tested on: A549
NCI-H460 = tested on: NCI-H460
SF-295 = tested on: SF-295
HT-29 = tested on: HT-29
SW-620 = tested on: SW-620
UO-31 = tested on: UO-31
MDA-MB-231 = tested on: MDA-MB-231
SR = tested on: SR
CAKI-1 = tested on: CAKI-1
PC-3 = tested on: PC-3
MDA-N = tested on: MDA-N
HOP-62 = tested on: HOP-62
UACC-62 = tested on: UACC-62
NCI-H23 = tested on: NCI-H23
NCI-H522 = tested on: NCI-H522
EKVX = tested on: EKVX
MCF7 = tested on: MCF7
RPMI-8226 = tested on: RPMI-8226
HCT-15 = tested on: HCT-15
NCI/ADR-RES = tested on: NCI/ADR-RES
LOX IMVI = tested on: LOX IMVI
SK-MEL-2 = tested on: SK-MEL-2
HCC 2998 = tested on: HCC 2998

Measured: GI50

CC1C2CC(CC2O)C1(C)C (stereo not drawn)
inactive: CCRF-CEM > 100 µM | M14 > 100 µM | Hs-578T > 100 µM | K562 > 100 µM | SK-OV-3 > 100 µM | OVCAR-5 > 100 µM | IGROV-1 > 100 µM | MDA-MB-435 > 100 µM | BT-549 > 100 µM | T47D > 100 µM | SK-MEL-28 > 100 µM | HL-60 > 100 µM | U-251 > 100 µM | OVCAR-8 > 100 µM | SNB-75 > 100 µM | ACHN > 100 µM | HCT-116 > 100 µM | MOLT-4 > 100 µM | SF-268 > 100 µM | SK-MEL-5 > 100 µM | 786-0 > 100 µM | SNB-19 > 100 µM | UACC-257 > 100 µM | NCI-H226 > 100 µM | A498 > 100 µM | SF-539 > 100 µM | RXF 393 > 100 µM | TK-10 > 100 µM | SN12C > 100 µM | DU-145 > 100 µM | KM12 > 100 µM | COLO 205 > 100 µM | OVCAR-4 > 100 µM | OVCAR-3 > 100 µM | Malme-3M > 100 µM | HOP-92 > 100 µM | A549 > 100 µM | NCI-H460 > 100 µM | SF-295 > 100 µM | HT-29 > 100 µM | SW-620 > 100 µM | UO-31 > 100 µM | MDA-MB-231 > 100 µM | SR > 100 µM | CAKI-1 > 100 µM | PC-3 > 100 µM | MDA-N > 100 µM | HOP-62 > 100 µM | UACC-62 > 100 µM | NCI-H23 > 100 µM | NCI-H522 > 100 µM

C=CCNC1=C2C[C@@H](C)C[C@@H](OC)[C@H](OC(=O)CN)[C@H](C)/C=C(\C)[C@@H](OC(N)=O)[C@H](OC)/C=C\C=C(/C)C(=O)NC(=CC1=O)C2=O
inactive: CCRF-CEM 1.27 µM | EKVX 5.77 µM | Hs-578T 7.73 µM | OVCAR-5 6.25 µM | BT-549 10.3 µM | SK-MEL-28 2.05 µM | HL-60 1.69 µM | U-251 1.29 µM | SNB-75 1.7 µM | ACHN 5.13 µM | MOLT-4 1.21 µM | SF-268 5.73 µM | 786-0 1.49 µM | SNB-19 5.4 µM | RXF 393 1.95 µM | RPMI-8226 3.59 µM | OVCAR-4 4.35 µM | OVCAR-3 1.16 µM | HOP-92 3.41 µM | NCI/ADR-RES 36.1 µM | UO-31 5.87 µM | MDA-MB-231 3.71 µM | CAKI-1 4.6 µM
3.49 µM: HCT-15
active: M14 0.371 µM | K562 0.337 µM | MCF7 0.162 µM | SK-OV-3 0.162 µM | IGROV-1 0.927 µM | MDA-MB-435 0.418 µM | OVCAR-8 0.904 µM | HCT-116 0.575 µM | SK-MEL-5 0.476 µM | UACC-257 0.528 µM | A498 0.74 µM | SF-539 0.883 µM | TK-10 0.355 µM | SN12C 0.497 µM | DU-145 0.783 µM | KM12 0.27 µM | COLO 205 0.204 µM | Malme-3M 0.456 µM | A549 0.359 µM | LOX IMVI 0.528 µM | NCI-H460 0.504 µM | SF-295 0.488 µM | HT-29 0.0406 µM | SW-620 0.183 µM | SR 0.134 µM | PC-3 0.4 µM | MDA-N 0.223 µM | HOP-62 0.521 µM | UACC-62 0.381 µM | NCI-H23 0.48 µM | SK-MEL-2 0.453 µM | HCC 2998 0.27 µM | NCI-H522 0.706 µM
